Test results reported in patent US11013780B2, “Methods of treating female infertility” (Myovant Sciences GmbH, priority 2016, dated 2021).
Where a SMILES comes first, the peptide text is derived from it. [ ]: non-standard residue; d: D form. Arg(Me) = CNC(=N)NCCC[C@H](N)C(=O)O; Hyp = O=C(O)[C@@H]1C[C@@H](O)CN1; azaGly = NNC(=O)O

Key:
dog KISS1R = molecular target: T1, dog KISS1R (Canis lupus familiaris, UniProt A0A8I3S0V2); assay: Intracellular Ca2+ mobilization (fluorometric imaging plate reader), dog KISS1R; assay type: cell-based
T1 construct: expressed in transfected cells; host or cells: Chinese hamster ovary dihydrofolate reductase negative cells
T1 sequence (A0A8I3S0V2 1-382): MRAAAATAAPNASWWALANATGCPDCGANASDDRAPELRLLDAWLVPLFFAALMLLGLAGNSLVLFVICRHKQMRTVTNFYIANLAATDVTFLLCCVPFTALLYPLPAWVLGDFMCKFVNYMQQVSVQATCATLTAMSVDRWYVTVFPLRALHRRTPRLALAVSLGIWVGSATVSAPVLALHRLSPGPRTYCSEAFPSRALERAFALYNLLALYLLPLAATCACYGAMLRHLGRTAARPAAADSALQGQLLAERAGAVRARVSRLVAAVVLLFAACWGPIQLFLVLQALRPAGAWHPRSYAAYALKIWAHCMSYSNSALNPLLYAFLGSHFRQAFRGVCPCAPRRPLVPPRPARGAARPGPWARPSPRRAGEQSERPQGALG
Procedure: (§1) The effects of API-MA on intracellular Ca^2+ mobilization in KISS1R-expressing recombinant cells were evaluated by performing the fluorometric imaging plate reader assay.

serum LH and FSH = assay: Single dose pharmacodynamics (LH, FSH), European men; assay type: in vivo, human
Procedure: Another study was a single dose, phase 1 clinical study of API-MA in healthy men age 50 to 76 years. Subjects enrolled in the first […] cohorts received 0.001, 0.003, 0.01, 0.03, 0.1 or 0.3 mg of API-MA or placebo by single SC bolus. Subjects enrolled in the seventh, eighth, and ninth cohorts received 1, 3, or 6 mg of API-MA or placebo by single 2-hour SC infusion. The pharmacodynamics of each of the following hormones was assessed: LH and FSH. PRL, TSH, cortisol, sex hormone binding globulin (SHBG), and plasma ACTH (also known as corticotropin) concentrations were measured on the day prior to dosing and on day 4, the Final Visit. To measure serum concentrations of LH and FSH in the bolus cohorts, blood specimens were collected at the following nominal times: the day prior to dosing, predose, and 0.083, 0.25, 0.75, 1, 2, 3, 4, 6, 8, 12, 16, 24, 36, 48 and 72 hours postdose. In the infusion cohorts, blood specimens were collected at the following nominal times: the day prior to dosing, predose or start of the infusion, and 0.5, 1, 1.5, 2 (end of infusion), 2.25, 2.5, 3, 4, 6, 8, 10, 14, 18, 26, 50 and 74 hours after the start of infusion. Serum LH concentrations increased after a single SC bolus of API-MA, as well as after a single 2-hour SC infusion of API-MA. The concentrations peaked between 6 and 12 hours and returned to baseline by 72 hours. The magnitudes and durations of the LH concentration increases were similar across the dose range, 0.001 to 6 mg.

CYP1A2 = molecular target: T2, CYP1A2 (Homo sapiens, UniProt P05177); assay: Inhibition of recombinant CYP1A2; assay type: in vitro ADME
T2 sequence (P05177 1-516): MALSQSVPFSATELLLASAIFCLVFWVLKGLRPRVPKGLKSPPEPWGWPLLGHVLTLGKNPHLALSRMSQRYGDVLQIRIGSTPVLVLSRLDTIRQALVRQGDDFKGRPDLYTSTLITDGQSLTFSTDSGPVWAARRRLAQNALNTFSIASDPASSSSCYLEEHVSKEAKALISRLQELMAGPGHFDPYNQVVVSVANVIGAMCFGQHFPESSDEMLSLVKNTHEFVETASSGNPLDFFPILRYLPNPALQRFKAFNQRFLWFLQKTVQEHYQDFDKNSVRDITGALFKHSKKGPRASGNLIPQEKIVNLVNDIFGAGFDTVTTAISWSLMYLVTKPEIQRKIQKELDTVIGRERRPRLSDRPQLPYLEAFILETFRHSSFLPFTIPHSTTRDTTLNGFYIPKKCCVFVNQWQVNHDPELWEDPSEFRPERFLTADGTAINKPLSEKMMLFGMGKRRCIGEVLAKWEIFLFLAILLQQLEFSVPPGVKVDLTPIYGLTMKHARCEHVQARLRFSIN

serum LH, FSH and PSA = assay: Multiple-dose pharmacodynamics, Japanese prostate cancer patients; assay type: in vivo, human
Procedure: The study was a phase 1 study in hormone naïve Japanese prostate cancer patients. Six patients received API-MA doses of 0.5 mg (3 patients) and 1.0 mg (3 patients) administered via 2-hour SC infusion once daily for 14 days. Summary statistics of serum concentrations of LH, FSH, GH, PRL, and TSH, as well as plasma concentration of ACTH and serum concentration of prostate-specific antigen (PSA), at baseline and at each evaluation point, changes from baseline were calculated for each dose, and the data (individual values and mean±standard deviation) were plotted against time for each dose. […] Changes in serum LH were similar between 0.5 and 1.0 mg of API-MA (data for API-MA 1.0 mg/day dose group not shown).

monkey KISS1R = assay: Intracellular Ca2+ mobilization (fluorometric imaging plate reader), monkey KISS1R; assay type: cell-based
Procedure: as §1

serum LH, FSH, E2 = assay: Physiological effects in healthy women, follicular phase (Example 11, Part 1); assay type: in vivo, human
From the text: The study population included healthy women, aged 18-35 years, with BMI 18-30 kg/m^2, no medical problems and not taking any medications or hormonal contraception. Three healthy, female subjects were selected and randomized and received a single dose of each of the three study regimens noted below (one regimen per study period). All women were scheduled for three Study D1 Visits (each during the follicular phase of the menstrual cycle). […] The order in which a subject receives one of the three study regimens was determined by a randomization matrix.
The study included a screening visit to collect participants' full medical history and to conduct a general medical examination and blood testing. The three study periods each consisted of three planned study visits per study period (excluding screening and follow-up). Study Day 1 (SD1) Visit of each study period occurred during the follicular phase of the menstrual cycle (days 1-4), and the SD2 and SD3 Visits occurred at 24- and 48-hrs post-dose, respectively (FIG. 14). A follow-up phone call happened 7-10 days post-dose in each study period.
Immediately following dosing, serum LH, FSH, E2 (oestradiol), P (progesterone) and SHBG levels were assessed at 30 minute intervals for up to 14 hours (FIGS. 15A-15C, 16A-16C, 17, 18, 19, 20A, and 20B). These PD variables were also assessed at 24 (Study Day 2) and 48 hours (Study Day 3) post-dose. SHBG changes less rapidly and was measured every 3 hours to reduce blood volume.
Up to 3 mL of blood volume were required for measurement of serum reproductive hormone levels (LH, FSH, E2 and P). Blood samples for serum analysis were collected in plain Vacutainer tubes (Beckton Dickson, Franklin Lakes, N.J., USA), and spun after clotting (˜1 hour at room temperature) for 10 minutes at 3000 rpm. Serum was then stored in a locked freezer at −20° C. until assay of serum reproductive hormone levels.

[1] = Japanese prostate cancer patients, 0.5 mg/day 2-hour SC infusion for 14 days

CC(=O)O.CNC(=N)NCCC[C@H](NC(=O)[C@H](CC(C)C)NC(=O)NNC(=O)[C@H](Cc1ccccc1)NC(=O)[C@@H](NC(=O)[C@H](CC(N)=O)NC(=O)[C@@H]1C[C@@H](O)CN1C(=O)[C@@H](Cc1ccc(O)cc1)NC(C)=O)[C@@H](C)O)C(=O)N[C@@H](Cc1c[nH]c2ccccc12)C(N)=O [API-MA, 2-(N-Acetyl-D-tyrosyl-trans-4-hydroxy-L-prolyl-Lasparaginyl-L-threonyl-L-phenylalanyl)-hydrazinocarbonyl-L-leucyl-Nω-methyl-L-arginyl-L-tryptophanamide monoacetate] (Ac-[dY][Hyp]NTF[azaGly]L[Arg(Me)]W-NH2)
EC50 (dog KISS1R): 2.01 nM
Ratio of EC50 of API-MA to kisspeptin (45-54) (dog KISS1R; dog KISS1R): 1.2
Changes in serum SHBG, prolactin, TSH, corticotropin, cortisol (serum LH and FSH; any dose level): no relevant changes
Time of FSH return / decline towards baseline (serum LH and FSH; single dose 0.001 to 6 mg): ≤ 72 h
Time of LH return to baseline (serum LH and FSH; single dose 0.001 to 6 mg): ≤ 72 h
IC50 (CYP1A2): > 7.78 nM
Serum FSH levels (serum LH, FSH and PSA; [1]): completely suppressed from Day 6 to Day 16
Serum LH levels (serum LH, FSH and PSA; [1]): completely suppressed from Day 6 to Day 16
Serum PSA decrease compared to baseline (serum LH, FSH and PSA; patients receiving 0.5 mg): approximately 40%
EC50 (monkey KISS1R; CHO dhfr- cells expressing monkey KISS1R): 0.074 nM
Ratio of EC50 of API-MA to kisspeptin (45-54) (monkey KISS1R; monkey KISS1R): 0.94

CNC(=N)NCCC[C@H](NC(=O)[C@H](CC(C)C)NC(=O)NNC(=O)[C@H](Cc1ccccc1)NC(=O)[C@@H](NC(=O)[C@H](CC(N)=O)NC(=O)[C@@H]1C[C@@H](O)CN1C(=O)[C@@H](Cc1ccc(O)cc1)NC(C)=O)[C@@H](C)O)C(=O)N[C@@H](Cc1c[nH]c2ccccc12)C(N)=O [Compound 1, 2-(N-Acetyl-D-tyrosyl-trans-4-hydroxy-L-prolyl-L-asparaginyl-L-threonyl-L-phenylalanyl)-hydrazinocarbonyl-L-leucyl-Nω-methyl-L-arginyl-L-tryptophanamide] (Ac-[dY][Hyp]NTF[azaGly]L[Arg(Me)]W-NH2)
FSH response (serum LH, FSH, E2): very low compared to the LH response
Time of peak serum LH post-dosing (serum LH, FSH, E2; 0.003 nmol/kg SC): 14 to 36 h
Duration of LH surge (serum LH, FSH, E2; 0.03 nmol/kg SC): approximately 14 hours
End of LH surge after administration (serum LH, FSH, E2; 0.03 nmol/kg SC): 28 h
Time of peak serum LH after administration (serum LH, FSH, E2; 0.03 nmol/kg SC): 18 to 20 h
